Source: US5210193A, “Piperazine derivatives” (American Cyanamid Company, priority 1990, dated 1993)
Converted amounts (≈) assume the structure as drawn. “And” between values parts separate entries of the source, which are not always exact repeats. Equal entries are not always repeated. Where two headings read alike, the source gives them in different places. Blank lines part the entries; values can stand above or below the compound they belong to.

Assays:
Assay in all cases: in vitro antibacterial MIC, agar plate dilution
Type in all cases: cell-based
[1] = tested on: Streptococcus faecalis VGH 84-69; details: 35° C.
Procedure, shortened: (§1)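 Agar plate dilution on Mueller-Hinton agar, inoculum approximately 10^4 CFU per organism applied with a Steers replicator. MIC (mcg/ml) is the lowest compound concentration inhibiting visible growth after 18 hours at 35° C.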

[2] = tested on: Pseudomonas aeruginosa VGH 84-4; details: 18 hours, 35° C.
Procedure, shortened: as §1

[3] = tested on: Streptococcus faecalis UCI 85-19; details: 18 hours, 35° C.
Procedure, shortened: as §1

[4] = tested on: Pseudomonas aeruginosa K 84-16; details: 35° C.
Procedure, shortened: as §1

[5] = tested on: Pseudomonas aeruginosa VGH 84-3; details: 35° C.
Procedure, shortened: as §1

[6] = tested on: Serratia marcescens VGH 84-30; details: Serratia marcescens, VGH8430, 18 h, 35° C., read-out: MIC
Procedure, shortened: as §1

[7] = tested on: Escherichia coli CMC 84-11; details: Escherichia coli, CMC8411, 18 h, 35° C., read-out: MIC
Procedure, shortened: as §1

[8] = tested on: Morganella morganii VHG 84-12; details: Morganella morganii VHG 84-12 (VGH 84-12 for Example 131), 35° C.
Procedure, shortened: as §1

[9] = tested on: Enterobacter cloacae K 84-10; details: 35° C.
Procedure, shortened: as §1

[10] = tested on: Serratia marcescens CMC 83-74; details: 35° C.
Procedure, shortened: as §1

[11] = tested on: Klebsiella pneumoniae MOR 84-24; details: 35° C.
Procedure, shortened: as §1

[12] = tested on: Staphylococcus aureus VGH 84-47; details: 35° C.
Procedure, shortened: as §1

[13] = tested on: Streptococcus faecalis CMC 83-120; details: 35° C.
Procedure, shortened: as §1

Citrobacter div. K 82-24 = details: 35° C.
Procedure, shortened: as §1

[14] = tested on: Escherichia coli MOR 84-20; details: 35° C.
Procedure, shortened: as §1

[15] = tested on: Enterobacter cloacae MOR 84-30; details: 35° C.
Procedure, shortened: as §1

[16] = tested on: Enterobacter cloacae VGH 84-39; details: 35° C.
Procedure, shortened: as §1

[17] = tested on: Providencia stuarti CMC 83-3; details: 35° C.
Procedure, shortened: as §1

Escherichia coli LL 311 = details: Escherichia coli, LL311, 18 h, 35° C., read-out: MIC
Procedure, shortened: as §1

[18] = tested on: Morganella morganii CMC 84-37; details: 18 hours, 35° C.
Procedure, shortened: as §1

[19] = tested on: Escherichia coli VGH 84-19; details: 35° C.
Procedure, shortened: as §1

[20] = tested on: Pseudomonas aeruginosa CMC 83-20; details: 35° C.
Procedure, shortened: as §1

[21] = tested on: Streptococcus faecalis VGH 84-65; details: 18 hours, 35° C.
Procedure, shortened: as §1

[22] = tested on: Staphylococcus aureus CMC 83-131; details: 35° C.
Procedure, shortened: as §1

[23] = tested on: Staphylococcus aureus VGH 84-45; details: 18 hours, 35° C.
Procedure, shortened: as §1

[24] = tested on: Serratia marcescens K 84-18; details: 18 hours, 35° C.
Procedure, shortened: as §1

[25] = tested on: Proteus rettgeri IO 83-21; details: 35° C.
Procedure, shortened: as §1

[26] = tested on: Streptococcus faecalis UCI 85-30; details: 35° C.
Procedure, shortened: as §1

[27] = tested on: Staphylococcus aureus Smith; details: 18 hours, 35° C.
Procedure, shortened: as §1

[28] = tested on: Morganella morganii MOR 84-45; details: 35° C.
Procedure, shortened: as §1

[29] = tested on: Escherichia coli ATCC 25922; details: 35° C.
Procedure, shortened: as §1

[30] = tested on: Proteus rettgeri CMC 84-41; details: Providencia rettgeri, CMC8441, 18 h, 35° C., read-out: MIC
Procedure, shortened: as §1

[31] = tested on: Staphylococcus aureus K 82-26; details: 35° C.
Procedure, shortened: as §1

[32] = tested on: Klebsiella pneumoniae IO 83-5; details: 35° C.
Procedure, shortened: as §1

[33] = tested on: Escherichia coli CMC 84-50; details: 35° C.
Procedure, shortened: as §1

[34] = tested on: Morganella morganii CMC 84-38; details: 35° C.
Procedure, shortened: as §1

[35] = tested on: Pseudomonas aeruginosa LL-1244; details: 18 hours, 35° C.
Procedure, shortened: as §1

[36] = tested on: Serratia marcescens MOR 84-41; details: 35° C.
Procedure, shortened: as §1

[37] = tested on: Klebsiella pneumoniae CMC 84-31; details: 35° C.
Procedure, shortened: as §1

[38] = tested on: Staphylococcus aureus ATTC 29213; details: Staphylococcus aureus, ATTC29213, 18 h, 35° C., read-out: MIC
Procedure, shortened: as §1

- MIC ([1]; 18 hours): 1 µg/mL (≈ 2.69 µM)
- MIC [2]: 2 µg/mL (≈ 5.38 µM)
- MIC [3]: 2 µg/mL (≈ 5.38 µM)
- MIC ([4]; 18 hours): 4 µg/mL (≈ 10.8 µM)
- MIC ([5]; 18 hours): 8 µg/mL (≈ 21.5 µM)
- MIC [6]: 2 µg/mL (≈ 5.38 µM)
- MIC [7]: 0.03 µg/mL (≈ 0.0808 µM)
- MIC ([8]; 18 hours): 0.12 µg/mL (≈ 0.323 µM)
- MIC ([9]; 18 hours): 0.015 µg/mL (≈ 0.0404 µM)
- MIC ([10]; 18 hours): 8 µg/mL (≈ 21.5 µM)
- MIC ([11]; 18 hours): 0.06 µg/mL (≈ 0.162 µM)
- MIC ([12]; 18 hours): 0.25 µg/mL (≈ 0.673 µM)
- MIC ([13]; 18 hours): 1 µg/mL (≈ 2.69 µM)
- MIC (Citrobacter div. K 82-24; 18 hours): 0.03 µg/mL (≈ 0.0808 µM)
- MIC ([14]; 18 hours): 0.015 µg/mL (≈ 0.0404 µM)
- MIC ([15]; 18 hours): 0.5 µg/mL (≈ 1.35 µM)
- MIC ([16]; 18 hours): 0.03 µg/mL (≈ 0.0808 µM)
- MIC ([17]; 18 hours): 4 µg/mL (≈ 10.8 µM)
- MIC (Escherichia coli LL 311): 0.03 µg/mL (≈ 0.0808 µM)
- MIC [18]: 0.06 µg/mL (≈ 0.162 µM)
- MIC ([19]; 18 hours): 0.015 µg/mL (≈ 0.0404 µM)
- MIC ([20]; 18 hours): 4 µg/mL (≈ 10.8 µM)
- MIC [21]: 1 µg/mL (≈ 2.69 µM)
- MIC ([22]; 18 hours): 0.5 µg/mL (≈ 1.35 µM)
- MIC [23]: 0.06 µg/mL (≈ 0.162 µM)
- MIC [24]: 0.12 µg/mL (≈ 0.323 µM)
- MIC ([25]; 18 hours): 0.12 µg/mL (≈ 0.323 µM)
- MIC ([26]; 18 hours): 2 µg/mL (≈ 5.38 µM)
- MIC [27]: 0.06 µg/mL (≈ 0.162 µM)
- MIC ([28]; 18 hours): 0.015 µg/mL (≈ 0.0404 µM)
- MIC ([29]; 18 hours): < 15 ng/mL and 8 ng/mL
- MIC [30]: 0.06 µg/mL (≈ 0.162 µM)
- MIC ([31]; 18 hours): 1 µg/mL (≈ 2.69 µM)
- MIC ([32]; 18 hours): 0.06 µg/mL (≈ 0.162 µM)
- MIC ([33]; 18 hours): 0.03 µg/mL (≈ 0.0808 µM)
- MIC ([34]; 18 hours): 0.03 µg/mL (≈ 0.0808 µM)
- MIC [35]: 4 µg/mL (≈ 10.8 µM)
- MIC ([36]; 18 hours): 0.12 µg/mL (≈ 0.323 µM)
- MIC ([37]; 18 hours): 0.03 µg/mL (≈ 0.0808 µM)
Compound: O=C(O)c1cn(C2CC2)c2cc(N3CCNC(C4CC4)C3)c(F)cc2c1=O (stereo not shown) [Example 124, 1-Cyclopropyl-7-(3-cvclopropyl-1-piperazinyl)-6-fluoro-1,4-dihydro-4-oxo-3-quinolinecarboxvlic acid,]

- MIC ([1]; Enterococcus faecalis, VGH8469, 18 h, read-out: MIC): 0.5 µg/mL (≈ 1.26 µM)
- MIC ([4]; Pseudomonas aeruginosa, K8416, 18 h, read-out: MIC): 4 µg/mL (≈ 10.1 µM)
- MIC ([5]; Pseudomonas aeruginosa, VGH843, 18 h, read-out: MIC): 8 µg/mL (≈ 20.2 µM)
- MIC ([8]; Morganella morganii, VHG8412, 18 h, read-out: MIC): 0.5 µg/mL (≈ 1.26 µM)
- MIC ([9]; Enterobacter cloacae, K8410, 18 h, read-out: MIC): 0.3 µg/mL (≈ 0.757 µM)
- MIC ([10]; Serratia marcescens, CMC8374, 18 h, read-out: MIC): 16 µg/mL (≈ 40.4 µM)
- MIC ([11]; Klebsiella pneumoniae, MOR8424, 18 h, read-out: MIC): 0.12 µg/mL (≈ 0.303 µM)
- MIC ([12]; Staphylococcus aureus, VGH8447, 18 h, read-out: MIC): 0.12 µg/mL (≈ 0.303 µM)
- MIC ([13]; Enterococcus faecalis, CMC83120, 18 h, read-out: MIC): 0.2 µg/mL (≈ 0.505 µM)
- MIC (Citrobacter div. K 82-24; Citrobacter, DIV.K8224, 18 h, read-out: MIC): 0.03 µg/mL (≈ 0.0757 µM)
- MIC ([14]; Escherichia coli, MOR8420, 18 h, read-out: MIC): 0.015 µg/mL (≈ 0.0378 µM)
- MIC ([15]; Enterobacter cloacae, MOR8430, 18 h, read-out: MIC): 0.5 µg/mL (≈ 1.26 µM)
- MIC ([16]; Enterobacter cloacae, VGH8439, 18 h, read-out: MIC): 0.06 µg/mL (≈ 0.151 µM)
- MIC ([17]; Providencia, CMC833, 18 h, read-out: MIC): 4 µg/mL (≈ 10.1 µM)
- MIC ([19]; Escherichia coli, VGH8419, 18 h, read-out: MIC): 0.015 µg/mL (≈ 0.0378 µM)
- MIC ([20]; Pseudomonas aeruginosa, CMC8320, 18 h, read-out: MIC): 2 µg/mL (≈ 5.05 µM)
- MIC ([22]; Staphylococcus aureus, CMC83131, 18 h, read-out: MIC): 0.25 µg/mL (≈ 0.631 µM)
- MIC [38]: 0.12 µg/mL (≈ 0.303 µM)
- MIC ([25]; Providencia rettgeri, IO8321, 18 h, read-out: MIC): 0.12 µg/mL (≈ 0.303 µM)
- MIC ([26]; Enterococcus faecalis, UCI8530, 18 h, read-out: MIC): 1 µg/mL (≈ 2.52 µM)
- MIC ([28]; Morganella morganii, MOR8445, 18 h, read-out: MIC): 0.03 µg/mL (≈ 0.0757 µM)
- MIC ([29]; Escherichia coli, ATCC25922, 18 h, read-out: MIC): 8 ng/mL (≈ 0.0202 µM)
- MIC ([31]; Staphylococcus aureus, K8226, 18 h, read-out: MIC): 0.5 µg/mL (≈ 1.26 µM)
- MIC ([32]; Klebsiella pneumoniae, IO835, 18 h, read-out: MIC): 0.12 µg/mL (≈ 0.303 µM)
- MIC ([33]; Escherichia coli, CMC8450, 18 h, read-out: MIC): 0.03 µg/mL (≈ 0.0757 µM)
- MIC ([34]; Morganella morganii, CMC8438, 18 h, read-out: MIC): 0.06 µg/mL (≈ 0.151 µM)
- MIC ([36]; Serratia marcescens, MOR8441, 18 h, read-out: MIC): 0.5 µg/mL (≈ 1.26 µM)
- MIC ([37]; Klebsiella pneumoniae, CMC8431, 18 h, read-out: MIC): 0.06 µg/mL (≈ 0.151 µM)
Compound: O=C(O)c1cn(C2CC2)c2cc(N3CCNC(c4cc[nH]c4)C3)c(F)cc2c1=O (stereo not shown) [Example 119]
